Results published in patent US20230121313A1 (priority 2019, published 2023).

System: patients with treatment-resistant depression (TRD)
Test: MADRS total score, phase 2 doubly-randomized dose-response study in TRD (NCT01998958)
Assay type: in vivo, human
Details: for MADRS total score, Mean difference placebo: Period 1 and Period 2 Combined; for MADRS total score: LS mean difference vs placebo, range over esketamine dose groups / Proportion of responders (≥50% improvement in MADRS total score) / Remission (MADRS total score ≤10) / MADRS total score: treatment difference relative to placebo: phase 2; for MADRS total score: LS mean difference vs placebo, range over esketamine dose groups: 28, 56, 84 mg; for Proportion of responders (≥50% improvement in MADRS total score): Period 2 endpoint; for Remission (MADRS total score ≤10): after 2 weeks; for MADRS total score: treatment difference relative to placebo: day 15
Description: In Panel A, reported here, 14 study sites (13 in US, 1 in Belgium) enrolled participants into the study. The study consisted of four phases: 1) screening, 2) double-blind treatment (days 1 to 15), comprised of two 1-week periods (Period 1, Period 2), 3) optional open-label treatment (days 15 to 74) with tapering of intranasal dosing frequency, and 4) post-treatment follow-up (8 weeks). Based on prior studies of ketamine where efficacy was reported after 1-2 doses, the duration of each period in the double-blind phase was 1 week, during which time it was expected that efficacy could be achieved. This design allowed evaluation of the dose(s) needed to proceed to evaluation in phase 3. The purpose of the open-label flexible-dose phase was to evaluate the impact of less frequent dosing on sustaining efficacy.
At the beginning of double-blind Period 1, eligible participants were randomized (3:1:1:1) to intranasal placebo or esketamine 28, 56, or 84 mg, twice weekly (days 1 and 4) based on the first of two computer-generated randomization schedules (Period 1 and Period 2). Randomization was balanced by using randomly permuted blocks and stratified by study center. At the end of Period 1, those randomized to placebo who had moderate-to-severe symptoms (assessed by Quick Inventory of Depressive Symptomatology-Self Report (Trivedi 2016 and Rush, “The 16-item Quick Inventory of Depressive Symptomatology (QIDS) Clinician Rating (QIDS-C) and Self-Report (QIDS-SR): A psychometric evaluation in patients with chronic major depression”, Biol. Psychiatry, 2003, 54(5):573-583) [QIDS-SR16] total score: moderate, 11-16; severe, >16) were re-randomized (1:1:1:1) to intranasal esketamine 28, 56, or 84 mg or placebo, twice weekly (days 8 and 11), while those having mild or no symptoms continued on placebo. To maintain the blind, all participants completed an identical process prior to entry into Period 2, whether or not they were re-randomized. Regardless of response in the double-blind phase, all participants were eligible to enter the optional open-label phase. Esketamine (56 mg) was administered on the first day of the open-label phase (study day 15); subsequent doses could be adjusted (range: 28 to 84 mg) based on investigator's clinical judgment, with administration twice weekly for first 2 weeks, weekly for next 3 weeks, then every 2 weeks thereafter.
Efficacy was assessed with the Montgomery-Asberg Depression Rating Scale (MADRS; Montgomery, “A new depression scale designed to be sensitive to change”, Br. J. Psychiatry, 1979, 134:382-389; Williams, “Development and reliability of a structured interview guide for the Montgomery Asberg Depression Rating Scale (SIGMA)”, Br. J. Psychiatry, 2008, 192(1):52-58) on days 1 (pre-dose and 2 hour post-dose), 2, 8 (pre-dose), 9, and 15, using the structured interview guide (SIGMA). See, Williams 2008.
Efficacy data were analyzed in intent-to-treat (ITT) analysis sets for each period and phase. The ITT analysis sets included all participants who received at least 1 dose of study medication during that period or phase and had baseline and at least one post-baseline MADRS total score within that period or phase.
The primary efficacy endpoint—change from baseline (pre-dose, day 1 in each period) to endpoint (day 8 in each period) in MADRS total score—was analyzed using the analysis of covariance (ANCOVA) model. For Period 1, the model included treatment and country as factors, and baseline MADRS total score as covariate. For Period 2, the model included treatment and country as factors, Period 2 baseline QIDS-SR16 score (moderate or severe), and Period 2 baseline MADRS total score as a continuous covariate.
Given the consistency between Periods 1 and 2 results (Chi 2016), esketamine dose groups were compared to placebo using a combined test on the weighted test statistics for each period in the double-blind treatment phase. […]

[1] = OL endpoint-day 74, Esketamine/Esketamine/OL Esketamine
[2] = OL endpoint-day 74, Placebo/Esketamine/OL Esketamine
[3] = OL endpoint-day 74, Placebo/Placebo/OL Esketamine
[4] = Period 1, 2 hours, esketamine 28 mg
[5] = Period 1, 2 hours, esketamine 56 mg
[6] = Period 1, 2 hours, esketamine 84 mg
[7] = Period 1, 24 hours, esketamine 28 mg
[8] = Period 1, 24 hours, esketamine 56 mg
[9] = Period 1, 24 hours, esketamine 84 mg
[10] = Period 1, study period endpoint (day 8), esketamine 28 mg
[11] = Period 1, study period endpoint (day 8), esketamine 56 mg
[12] = Period 1, study period endpoint (day 8), esketamine 84 mg
[13] = Period 2 (placebo nonresponsive participants re-randomized), 2 hours, esketamine 28 mg
[14] = Period 2 (placebo nonresponsive participants re-randomized), 2 hours, esketamine 56 mg
[15] = Period 2 (placebo nonresponsive participants re-randomized), 2 hours, esketamine 84 mg
[16] = Period 2 (placebo nonresponsive participants re-randomized), 24 hours, esketamine 28 mg
[17] = Period 2 (placebo nonresponsive participants re-randomized), 24 hours, esketamine 56 mg
[18] = Period 2 (placebo nonresponsive participants re-randomized), 24 hours, esketamine 84 mg
[19] = Period 2 (placebo nonresponsive participants re-randomized), study period endpoint (day 15), esketamine 28 mg
[20] = Period 2 (placebo nonresponsive participants re-randomized), study period endpoint (day 15), esketamine 56 mg
[21] = Period 2 (placebo nonresponsive participants re-randomized), study period endpoint (day 15), esketamine 84 mg
[22] = Week 8 (Follow-up), Esketamine/Esketamine/OL Esketamine
[23] = Week 8 (Follow-up), Placebo/Esketamine/OL Esketamine
[24] = Week 8 (Follow-up), Placebo/Placebo/OL Esketamine

Structure (SMILES): CN[C@]1(c2ccccc2Cl)CCCCC1=O [esketamine, (S)-2-(2-chlorophenyl)-2-(methylamino)cyclohexanone]
- Remission Rate, No, % [1]: 72.2%
- Remission Rate, Yes, % [1]: 27.8%
- Response Rate, ≥50% improvement, % [1]: 61.1%
- Remission Rate, No, % [2]: 60.0%
- Remission Rate, Yes, % [2]: 40.0%
- Response Rate, ≥50% improvement, % [2]: 50.0%
- Remission Rate, No, % [3]: 66.7%
- Remission Rate, Yes, % [3]: 33.3%
- Response Rate, ≥50% improvement, % [3]: 100%
- Remission Rate, No, % (OL endpoint-day 74, Total): 67.6%
- Remission Rate, Yes, % (OL endpoint-day 74, Total): 32.4%
- Response Rate, ≥50% improvement, % (OL endpoint-day 74, Total): 64.7%
- MADRS total score, LS mean change [4]: −16.4
- MADRS total score, LS mean difference placebo [4]: −6.7
- Remitters, % [4]: (27.3) %
- Responders, % [4]: (54.5) %
- MADRS total score, LS mean change [5]: −14.3
- MADRS total score, LS mean difference placebo [5]: −4.6
- Remitters, % [5]: (18.2) %
- Responders, % [5]: (36.4) %
- MADRS total score, LS mean change [6]: −17.6
- MADRS total score, LS mean difference placebo [6]: −7.9
- Remitters, % [6]: (25.0) %
- Responders, % [6]: (58.3) %
- MADRS total score, LS mean change [7]: −14.8
- MADRS total score, LS mean difference placebo [7]: −9.1
- Remitters, % [7]: (36.4) %
- Responders, % [7]: (36.4) %
- MADRS total score, LS mean change [8]: −15.7
- MADRS total score, LS mean difference placebo [8]: −10.0
- Remitters, % [8]: (18.2) %
- Responders, % [8]: (27.3) %
- MADRS total score, LS mean change [9]: −16.4
- MADRS total score, LS mean difference placebo [9]: −10.7
- Remitters, % [9]: (25.0) %
- Responders, % [9]: (41.7) %
- MADRS total score, LS mean change [10]: −9.8
- MADRS total score, LS mean difference placebo [10]: −5.0
- Remitters, % [10]: (9.1) %
- Responders, % [10]: (9.1) %
- MADRS total score, LS mean change [11]: −12.4
- MADRS total score, LS mean difference placebo [11]: −7.6
- Remitters, % [11]: (9.1) %
- Responders, % [11]: (18.2) %
- MADRS total score, LS mean change [12]: −15.3
- MADRS total score, LS mean difference placebo [12]: −10.5
- Remitters, % [12]: (25.0) %
- Responders, % [12]: (41.7) %
- MADRS total score, Mean difference placebo (esketamine 28 mg): −4.2
- MADRS total score, Mean difference placebo (esketamine 56 mg): −6.3
- MADRS total score, Mean difference placebo (esketamine 84 mg): −9.0
- MADRS total score, LS mean change [13]: −10.3
- MADRS total score, LS mean difference placebo [13]: −3.5
- Remitters, % [13]: (12.5) %
- Responders, % [13]: (12.5) %
- MADRS total score, LS mean change [14]: −11.7
- MADRS total score, LS mean difference placebo [14]: −4.9
- Responders, % [14]: (22.2) %
- MADRS total score, LS mean change [15]: −11.6
- MADRS total score, LS mean difference placebo [15]: −4.9
- Remitters, % [15]: (40.0) %
- Responders, % [15]: (40.0) %
- MADRS total score, LS mean change [16]: −8.9
- MADRS total score, LS mean difference placebo [16]: −4.8
- MADRS total score, LS mean change [17]: −10.2
- MADRS total score, LS mean difference placebo [17]: −6.1
- Responders, % [17]: (11.1) %
- MADRS total score, LS mean change [18]: −11.6
- MADRS total score, LS mean difference placebo [18]: −7.5
- Remitters, % [18]: (20.0) %
- Responders, % [18]: (40.0) %
- MADRS total score, LS mean change [19]: −7.6
- MADRS total score, LS mean difference placebo [19]: −3.1
- Remitters, % [19]: (12.5) %
- Responders, % [19]: (12.5) %
- MADRS total score, LS mean change [20]: −8.9
- MADRS total score, LS mean difference placebo [20]: −4.4
- MADRS total score, LS mean change [21]: −11.4
- MADRS total score, LS mean difference placebo [21]: −6.9
- Remitters, % [21]: (20.0) %
- Responders, % [21]: (20.0) %
- Remission Rate, No, % [22]: 54.5%
- Remission Rate, Yes, % [22]: 45.5%
- Response Rate, ≥50% improvement, % [22]: 68.2%
- Remission Rate, No, % [23]: 75.0%
- Remission Rate, Yes, % [23]: 25.0%
- Response Rate, ≥50% improvement, % [23]: 25.0%
- Remission Rate, No, % [24]: 42.9%
- Remission Rate, Yes, % [24]: 57.1%
- Response Rate, ≥50% improvement, % [24]: 71.4%
- Remission Rate, No, % (Week 8 (Follow-up), Total): 58.5%
- Remission Rate, Yes, % (Week 8 (Follow-up), Total): 41.5%
- Response Rate, ≥50% improvement, % (Week 8 (Follow-up), Total): 56.1%
- MADRS total score: LS mean difference vs placebo, range over esketamine dose groups (Period 1 (baseline to day 8)): −5.0 to −10.5
- MADRS total score: LS mean difference vs placebo, range over esketamine dose groups (Period 2 (day 8 to day 15)): −3.1 to −6.9
- Proportion of responders (≥50% improvement in MADRS total score) (28 mg): 37.5%
- Proportion of responders (≥50% improvement in MADRS total score) (56 mg): 36.4%
- Proportion of responders (≥50% improvement in MADRS total score) (84 mg): 50.0%
- Remission (MADRS total score ≤10) (28 mg): 12.5%
- Remission (MADRS total score ≤10) (56 mg): 27.3%
- Remission (MADRS total score ≤10) (84 mg): 40.0%
- MADRS total score: treatment difference relative to placebo (completers with same treatment 2 weeks, 84 mg): −12.5
- MADRS total score: treatment difference relative to placebo (completers, 28 mg): −6.0
- MADRS total score: treatment difference relative to placebo (completers, 56 mg): −8.3
